{"source": "ChEMBL document CHEMBL5390318", "about": "“2-Amino-5-arylethynyl-thiophen-3-yl-(phenyl)methanones as A1 Adenosine Receptor Positive Allosteric Modulators” (ACS Med Chem Lett, 2023)", "key": {"[1]": {"target": "5-hydroxytryptamine receptor 7 (Homo sapiens, UniProt P34969)", "sequence (P34969 whole entry)": "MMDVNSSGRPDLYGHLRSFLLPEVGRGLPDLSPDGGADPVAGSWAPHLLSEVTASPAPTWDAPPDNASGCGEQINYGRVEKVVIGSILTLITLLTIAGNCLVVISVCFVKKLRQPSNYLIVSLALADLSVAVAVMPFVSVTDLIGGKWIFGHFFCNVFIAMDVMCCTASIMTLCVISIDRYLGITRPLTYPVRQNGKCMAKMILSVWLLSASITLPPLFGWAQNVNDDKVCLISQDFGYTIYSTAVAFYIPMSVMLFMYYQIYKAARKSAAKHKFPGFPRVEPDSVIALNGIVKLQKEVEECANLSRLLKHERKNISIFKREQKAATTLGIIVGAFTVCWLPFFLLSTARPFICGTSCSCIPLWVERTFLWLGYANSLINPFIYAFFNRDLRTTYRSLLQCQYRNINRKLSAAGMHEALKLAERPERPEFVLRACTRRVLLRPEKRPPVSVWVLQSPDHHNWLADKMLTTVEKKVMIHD", "test": "Binding affinity to 5HT-7A receptor (unknown origin)"}, "Translocator protein": {"target": "Translocator protein (Homo sapiens, UniProt P30536)", "sequence (P30536 whole entry)": "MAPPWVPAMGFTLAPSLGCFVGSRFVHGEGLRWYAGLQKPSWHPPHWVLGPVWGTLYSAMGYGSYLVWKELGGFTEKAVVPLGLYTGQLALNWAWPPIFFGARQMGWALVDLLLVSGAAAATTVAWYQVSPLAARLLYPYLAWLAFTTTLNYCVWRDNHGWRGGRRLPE", "test": "Binding affinity to TSPO (unknown origin)"}, "[2]": {"target": "Beta-3 adrenergic receptor (Homo sapiens, UniProt P13945)", "sequence (P13945 whole entry)": "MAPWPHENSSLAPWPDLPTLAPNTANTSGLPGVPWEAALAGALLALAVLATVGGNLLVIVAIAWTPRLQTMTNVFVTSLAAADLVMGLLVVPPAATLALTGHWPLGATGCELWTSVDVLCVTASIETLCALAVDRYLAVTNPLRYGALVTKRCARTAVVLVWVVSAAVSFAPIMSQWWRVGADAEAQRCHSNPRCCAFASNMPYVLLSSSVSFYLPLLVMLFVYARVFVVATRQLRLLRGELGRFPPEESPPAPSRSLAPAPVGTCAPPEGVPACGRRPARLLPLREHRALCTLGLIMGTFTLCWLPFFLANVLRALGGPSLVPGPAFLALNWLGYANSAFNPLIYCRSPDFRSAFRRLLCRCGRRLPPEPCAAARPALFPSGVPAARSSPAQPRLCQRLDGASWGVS", "test": "Binding affinity to beta3 adrenergic receptor (unknown origin)"}, "[3]": {"target": "Sigma intracellular receptor 2 (Homo sapiens, UniProt Q5BJF2)", "sequence (Q5BJF2 whole entry)": "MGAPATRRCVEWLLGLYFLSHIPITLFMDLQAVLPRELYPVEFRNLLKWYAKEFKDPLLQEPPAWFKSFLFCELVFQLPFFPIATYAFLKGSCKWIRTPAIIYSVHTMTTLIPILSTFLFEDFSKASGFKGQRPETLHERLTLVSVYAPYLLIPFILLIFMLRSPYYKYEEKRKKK", "test": "Binding affinity to sigma 2 receptor (unknown origin)"}}}
{"smiles": "CC(C)(C)Cc1c(C#Cc2ccccc2F)sc(N)c1C(=O)c1ccc(Cl)cc1", "values": [{"measurement": "Ki", "setting": "[1]", "value": 5700, "unit": "nM"}, {"measurement": "Ki", "setting": "Translocator protein", "value": 560, "unit": "nM"}, {"measurement": "Ki", "setting": "[2]", "value": 3500, "unit": "nM"}, {"measurement": "Ki", "setting": "[3]", "value": 1400, "unit": "nM"}]}
